Test results reported in US10597388B2, “Pyridazinone herbicides” (FMC CORPORATION, priority 2014, dated 2020).

Experiments:
Type in all cases: in vivo
[1] = tested on: barnyardgrass (Echinochloa crus-galli); experiment: Test A greenhouse herbicide test, pre- and postemergence
How it was run: (§1)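 Seeds sown in loam–sand blend got a preemergence directed soil spray of compound in non-phytotoxic solvent with surfactant. Postemergence treatment was given at 2–10 cm, one- to two-leaf stage. After ~10 d in greenhouse, injury was rated visually vs untreated controls, 0 (no effect) to 100 (complete control).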

[2] = tested on: pigweed (Amaranthus retroflexus); experiment: as above
How it was run: as §1

[3] = tested on: barnyardgrass (Echinochloa crus-galli); experiment: Test B flooded paddy test; details: 250 g ai/ha, Flood; visual rating on scale of 0 to 100 where 0 is no effect and 100 is complete control; 13 to 15 d after treatment
How it was run: (§2)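 Plants at the 2-leaf stage were flooded to 3 cm above soil, and test compounds were applied directly into the paddy water, which was held at that depth throughout. After 13 to 15 d in a greenhouse, injury was rated visually against untreated controls on a 0–100 scale (0 no effect, 100 complete control).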

[4] = tested on: ducksalad (Heteranthera limosa); experiment: Test B flooded paddy test; details: 250 g ai/ha, Flood; visual rating on scale of 0 to 100 where 0 is no effect and 100 is complete control; 13 to 15 d after treatment
How it was run: as §2

rice (Oryza sativa) = experiment: Test B flooded paddy test; details: 250 g ai/ha, Flood; visual rating on scale of 0 to 100 where 0 is no effect and 100 is complete control; 13 to 15 d after treatment
How it was run: as §2

[5] = tested on: sedge, umbrella (small-flower umbrella sedge, Cyperus difformis); experiment: Test B flooded paddy test; details: 250 g ai/ha, Flood; visual rating on scale of 0 to 100 where 0 is no effect and 100 is complete control; 13 to 15 d after treatment
How it was run: as §2

[6] = tested on: chickweed (common chickweed, Stellaria media); experiment: Test C greenhouse herbicide test, postemergence
How it was run: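 Steps: pot plants in peat-based medium; spray postemergence at 1- to 4-leaf stage; hold in greenhouse 13 to 15 d; score visually against controls from 0 (no effect) to 100 (complete control).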

[7] = Postemergence, 125 g ai/ha, 0 to 100 scale, 0 no effect, 100 complete control
[8] = Postemergence, 500 g ai/ha, visual rating after approx. 10 d, 0 to 100 scale (0 no effect, 100 complete control)
[9] = Preemergence, 125 g ai/ha, visual injury rating, 0 to 100 scale (0 no effect, 100 complete control), approx. 10 d
[10] = Preemergence, 500 g ai/ha, 0 to 100 scale where 0 is no effect and 100 is complete control
[11] = Postemergence, 31 g ai/ha, scale 0 to 100 (0 no effect, 100 complete control)
[12] = Postemergence, 62 g ai/ha, 0 to 100 scale (0 no effect, 100 complete control)
[13] = Postemergence, 250 g ai/ha, scale 0 to 100, 0 no effect, 100 complete control, 13 to 15 d
[14] = postemergence, 125 g ai/ha, scale 0 to 100, 0 no effect, 100 complete control
[15] = Postemergence, 250 g ai/ha, scale 0 to 100, 0 is no effect, 100 is complete control

| SMILES | Plant response rating, Barnyardgrass [1, 7] | Plant response rating, Barnyardgrass [1, 8] | Plant response rating, Barnyardgrass [1, 9] | Plant response rating, Barnyardgrass [1, 10] | Plant response rating, Pigweed [2, 7] | Plant response rating, Pigweed [2, 8] | Plant response rating, Pigweed [2, 9] | Plant response rating, Pigweed [2, 10] | Plant response rating, Barnyardgrass [3] | Plant response rating, Ducksalad [4] | Plant response rating, Rice (rice (Oryza sativa)) | Plant response rating, Sedge, Umbrella [5] | Plant response rating, Chickweed [6, 11] | Chickweed plant response rating [6, 12] | Plant response rating, Chickweed [6, 13] | Chickweed plant response rating [6, 14] | Plant response rating, Chickweed [6, 15] |
| --- | --- | --- | --- | --- | --- | --- | --- | --- | --- | --- | --- | --- | --- | --- | --- | --- | --- |
| CC(=O)Oc1c(C)nn(C)c(=O)c1-c1c(C)cc(C)c2ccccc12 [Compound 153] | 90 | 90 | 100 | 100 | 80 | 100 | 100 | 100 | 0 | 0 | 0 | 0 | 90 | 95 | 98 | 98 |  |
| Cc1cc(C)c2ccccc2c1-c1c(OS(C)(=O)=O)c(C)nn(C)c1=O [Compound 154] | 90 | 90 | 70 | 100 | 90 | 90 | 100 | 100 | 50 | 60 | 50 | 80 | 90 | 90 | 95 | 90 |  |
| COC(=O)Oc1c(C)nn(C)c(=O)c1-c1c([N+](=O)[O-])ccc2ccccc12 [Compound 162] | 20 | 50 | 10 | 20 | 80 | 90 | 80 | 90 | 0 | 0 | 0 | 0 | 90 | 90 | 95 | 95 |  |
| CC(=O)Oc1c(C)nn(C)c(=O)c1-c1c([N+](=O)[O-])ccc2ccccc12 [Compound 164] | 20 | 20 | 10 | 20 | 80 | 80 | 80 | 100 | 0 | 0 | 0 | 0 | 80 | 90 |  | 95 | 98 |
| CSCC(=O)Oc1c(C)nn(C)c(=O)c1-c1cccc2ccccc12 [Compound 171] | 40 | 90 | 70 | 100 | 90 | 100 | 90 | 100 | 0 | 0 | 0 | 60 | 90 | 90 |  | 90 | 95 |
